Assay results reported in the COVID Moonshot data (paper PMC11187573), “Identification of SARS-CoV-2 Mpro inhibitors through deep reinforcement learning for de novo drug design and computational chemistry approaches” (RSC Medicinal Chemistry, 2024).

Columns and labels:
[1] = target: SARS-CoV-2 Main Protease (SARS-CoV-2) (UniProt P0DTD1)
[2] = target: SARS-CoV-2 Main Protease (SARS-CoV-2) (UniProt P0DTD1); remark: listed apart in the source
Experimental: Compounds were seeded into assay-ready plates (Greiner 384 low volume, cat 784900) using an Echo 555 acoustic dispenser, and DMSO was back-filled for a uniform concentration in assay plates (DMSO concentration maximum 1%) Screening assays were performed in duplicate at 20µM and 50µM. […] Dose response assays were performed in 12 point dilutions of 2-fold, typically beginning at 100µM. […] Reagents for Mpro assay were dispensed into the assay plate in 10µl volumes for a final volume of 20µL.
Mpro was pre-incubated for 15 minutes at room temperature with compound before addition of substrate and a further 30 minute incubation. Protease reaction was measured in a BMG Pherastar FS with a 480/520 ex/em filter set. Raw data was mapped and normalized to high (Protease with DMSO) and low (No Protease) controls using Genedata Screener software.

SMILES | relative solubility at 20 uM | relative solubility at 100 uM | inhibition ([1]; 50.0 µM) [%] | inhibition ([2]; 20.0 µM) [%] | inhibition ([2]; 50.0 µM) [%] | inhibition ([1]; 20.0 µM) [%] | IC50 [1] [µM] | IC50 [2] [µM]
Cc1ccc(O)cc1NC(=O)C(C)(C)c1cccc(F)c1 | 1 | 0.92 | -0.631 | 1.12 | -11 | – | – | –
CC(=O)N[C@@H](Cc1ccc(O)cc1)C(=O)NC(CN1CCN(C(=O)CCl)CC1)c1ccccc1 (stereo in doubt) | 0.99 | 1 | 31.1 | 21.3 | 41.2 | – | – | –
O=C(Cc1cccnc1)Nc1cccc(OC2CC(=O)N2)c1 (stereo not drawn) | 0.97 | 0.99 | 26.4 | 39.6 | 71.8 | – | – | –
C=CC(=O)N1CCCC(N(CC2CCCCC2)C2CCC(O)CC2)C1 (stereo not drawn) | 1 | 1 | 0 | -4.47 | -0.824 | – | – | –
O=C(CC(=O)N1CCOCC1)NC1CCCCC1 | 0.99 | 1 | 0 | 19.8 | 6.01 | 0 | – | –
O=C(Cc1c[nH]c2ncccc12)NCc1ccc(Cl)cc1 | 1 | 0.95 | – | 2.99 | 3.45 | 0 | – | –
Cc1ccc(NC(=O)C(C#N)C(=O)CC(C)C)cc1 (stereo not drawn) | 0.99 | 1 | 0 | – | 21.5 | 3.11 | – | –
Cc1ccc(NC2CCN(c3ccc(S(N)(=O)=O)cc3)CC2)cc1 | 0.92 | 0.84 | 40 | 2.67 | 5.62 | 28.4 | – | –
N#Cc1ccc(O)c(NC(=O)Cc2cccnc2)c1 | 1 | 0.95 | 0 | -15.4 | -8.48 | – | – | –
Cc1ccncc1NC(=O)CCNC(=O)c1ccccc1F | 1 | 1 | 0 | – | -15.8 | 0 | – | –
O=C(CCc1cnn[nH]1)NC(Cn1cccn1)c1ccccc1 (stereo not drawn) | 1 | 1 | 0 | -1.52 | -1.11 | 0 | – | –
O=C(C1CCN(c2ccncc2)CC1)N1CCS(=O)(=O)CC1 | 1 | 1 | 42.9 | – | -27.4 | 19.7 | – | –
Cc1ccccc1NC1CCN(c2ccc(S(N)(=O)=O)cc2)CC1 | 0.91 | 0.91 | 37.6 | 4.98 | 7.22 | 25.2 | – | –
CSc1ccncc1NC(=O)Cc1ccc2c(c1)CCCC2 | 0.99 | 0.67 | 0 | -1.16 | 11.6 | – | – | –
Cc1ccncc1NC(=O)Cn1ccc2ccc(Cl)cc21 | 0.99 | 0.98 | 77.4 | 30.6 | 27 | – | 20 | –
N#CC(C(=O)Nc1ccccc1)C(=O)c1cccc(Cl)c1 (stereo not drawn) | 0.98 | 0.98 | 0 | 24.1 | 44 | 0 | – | –
O=C(CCl)N1CCN(S(=O)(=O)c2ccsc2)CC1 | 1 | 1 | – | 78.6 | 73.7 | 96.4 | 0.484 | 1.63
NC(=O)C1Cc2ccccc2N(CC(=O)Nc2cnccn2)C1 (stereo not drawn) | 1 | 0.93 | 0 | 0.0292 | 6.19 | 0 | – | –

SMILES | relative solubility at 20 uM | relative solubility at 100 uM | inhibition ([1]; 50.0 µM) [%] | inhibition ([2]; 20.0 µM) [%] | inhibition ([2]; 50.0 µM) [%] | inhibition ([1]; 20.0 µM) [%] | IC50 [1] [µM] | IC50 [2] [µM]
Cc1ncncc1NC(=O)Nc1ccccc1 | 0.99 | 0.99 | 20.1 | -2.06 | -0.628 | 6.04 | – | –
CC(=O)N[C@@H](Cc1ccc(O)cc1)C(=O)NCc1ccc(Br)cc1 (stereo in doubt) | 1 | 0.99 | – | -20.1 | -24.8 | 0 | – | –
Cc1cccc(C2CN(C(=O)CCl)Cc3ccccc32)c1 (stereo not drawn) | 1 | 0.93 | 53.8 | 98.1 | 99.7 | – | 0.42 | –
Cc1ccncc1NC(=O)Nc1cccc(C#N)c1 | 1 | 0.97 | 55.7 | 19.4 | 44.3 | 23.8 | 49.3 | –
Cc1ccc(S(=O)(=O)NC2CCN(C(=O)CCl)CC2)cc1 | 1 | 1.01 | – | 25.1 | 59.3 | 54.9 | 18.5 | –
C=CC(=O)N(c1ccc(S(F)(F)(F)(F)F)cc1)C(C(=O)NC(C)(C)C)c1cccnc1 (stereo not drawn) | 0.98 | 0.9 | – | 11.1 | 23 | 6.54 | – | –
CS(=O)(=O)N1CCN(C(=O)CCl)CC1c1ccccc1 (stereo not drawn) | 1 | 1 | 95.9 | 64.6 | 69.5 | 87.5 | 3.31 | –
O=C(CCl)N1CCN(Cc2cccc3ccccc23)CC1 | 0.99 | 0.98 | 100 | – | 98.6 | 100 | 0.9 | –
N#Cc1cccc(CNc2ccc(O)cc2)c1 | 1 | 1 | 22.7 | 9.73 | 2.32 | 19.8 | – | –
Cc1cccc(NC(=O)C(C#N)C(=O)CC(C)C)c1 (stereo not drawn) | 1 | 1 | 0 | – | -0.258 | 0 | – | –
C=CC(=O)N(c1ccc(S(F)(F)(F)(F)F)cc1)C(C(=O)Nc1ccc(OC)cc1C)c1cccnc1 (stereo not drawn) | 0.92 | 0.75 | – | 5.52 | 12.2 | 0 | – | –
Cc1ccn(CC(=O)NCc2nccn2CCc2ccccc2)c(=O)c1 | 1 | 1 | 0 | -14.1 | -2.52 | – | – | –
C=CC(=O)N(c1ccc(C(F)(F)F)cc1)C(C(=O)NCCc1cccc(F)c1)c1cncc(C)c1 (stereo not drawn) | 0.91 | 0.73 | 91.6 | 38.8 | 63 | – | 7.72 | –
CC1CN(Cc2cccc(Cl)c2)CCN1C(=O)CCl (stereo not drawn) | 0.99 | 0.99 | 100 | 88.3 | 93.9 | 94.6 | 2.08 | –
C=CC(=O)N(c1ccc(C(C)(C)C)cc1)C(C(=O)NC)c1cccnc1 (stereo not drawn) | 1.01 | 0.99 | 100 | 42.1 | 69.7 | 57.4 | 17 | –
CNC(=O)OC1CCN(Cc2ccccc2)CC1 | 0.99 | 1 | 0 | – | 17.6 | 0.824 | – | –
Cc1cc(NC(=O)Cn2cncc2C)cc(C)c1Cl | 1 | 0.99 | 25.8 | 2.9 | 4.88 | – | – | –
NS(=O)(=O)c1ccc(N2CCC(N3CCCCC3)CC2)cc1 | 1 | 1 | 0 | – | 7.79 | 0 | – | –
